# Laboratory results reported in US10040802B2, “Thienopyrazine inhibitors of IRAK4 activity” (MERCK SHARP & DOHME CORP., priority 2015, dated 2018).
# Counter-ions that a name gives are not always drawn.
# Target: GST tagged IRAK4 (Homo sapiens (Human), UniProt Q9NWZ3)
# Assay: IRAK4 Kinase Assay (IMAP fluorescence polarization)
# Assay type: biochemical
# Conditions: 0.5 nM GST tagged IRAK4, 100 μM ATP, 30 minutes at 25° C.
# How it was run: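 GST-tagged IRAK4 (0.5 nM) phosphorylates 100 nM fluorescent peptide with 100 μM ATP in 10 mM Tris pH 7.2, 1 mM MgCl2, 1 mM DTT, 0.01% Tween 20 for 30 min at 25 °C. Phosphorylation read as IMAP nanoparticle-binding fluorescence polarization after stop reagent.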
# GST tagged IRAK4, sequence (Q9NWZ3 whole entry): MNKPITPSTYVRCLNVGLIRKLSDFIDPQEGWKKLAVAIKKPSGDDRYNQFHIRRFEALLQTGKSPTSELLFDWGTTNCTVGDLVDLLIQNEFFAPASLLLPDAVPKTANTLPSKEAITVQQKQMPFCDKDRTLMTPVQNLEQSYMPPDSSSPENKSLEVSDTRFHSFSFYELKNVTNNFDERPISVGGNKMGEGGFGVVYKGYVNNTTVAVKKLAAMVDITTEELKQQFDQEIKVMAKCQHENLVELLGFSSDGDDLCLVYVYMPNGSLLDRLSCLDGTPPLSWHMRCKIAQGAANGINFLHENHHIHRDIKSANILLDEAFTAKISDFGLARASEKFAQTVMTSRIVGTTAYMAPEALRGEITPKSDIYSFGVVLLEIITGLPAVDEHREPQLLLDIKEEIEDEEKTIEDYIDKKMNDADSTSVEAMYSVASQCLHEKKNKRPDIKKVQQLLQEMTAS
row,SMILES,IC50
1,"N#Cc1ccccc1NC(=O)c1csc2ncc(N3CCNCC3)nc12 [Example 86, N-(2-cyanophenyl)-2-piperazin-1-yl-thieno[2,3-b]-pyrazine-7-carboxamide trifluoroacetate]",292 nM
2,"O=C(Nc1ccccc1C(F)(F)F)c1csc2ncc(N3CCCNCC3)nc12 [Example 90, 2-(1,4-diazepan-1-yl)-N-[2-(trifluoromethyl)phenyl]thieno[2,3-b]pyrazine-7-carboxamide trifluoroacetate]",6400 nM
3,"O=C(Nc1ccccc1Cl)c1csc2ncc(N3CCCNCC3)nc12 [Example 91, N-(2-chlorophenyl)-2-(1,4-diazepan-1-yl)thieno[2,3-b]-pyrazine-7-carboxamide trifluoroacetate]",595 nM
4,"N[C@@H]1[C@H](Nc2cnc3scc(C(=O)Nc4ccccc4Br)c3n2)CCCC1(F)F [Example 96, 2-{[(1R,2R)-2-amino-3,3-difluorocyclo-hexyl]amino}-N-(2-bromo-phenyl)thieno-[2,3-b]-pyrazine-7-carboxamide]",2010 nM
5,"N[C@@H]1[C@H](Nc2cnc3scc(C(=O)Nc4ccccc4Cl)c3n2)CCCC1(F)F [Example 101, 2-{[(1R,2R)-2-amino-3,3-difluorocyclohexyl]-amino}-N-(2-chlorophenyl)-thieno[2,3-b]-pyrazine-7-carboxamide trifluoroacetate]",545 nM
6,"O=C(Nc1ccccc1C(F)F)c1csc2ncc(N3CCCNCC3)nc12 [Example 103, 2-(1,4-diazepan-1-yl)-N-[2-(difluoromethyl)phenyl]thieno[2,3-b]pyrazine-7-carboxamide trifluoroacetate]",3630 nM
7,"N[C@@H]1[C@H](Nc2cnc3scc(C(=O)Nc4ccccc4C(F)F)c3n2)CCCC1(F)F [Example 106, 2-{[(1R,2R)-2-amino-3,3-difluorocyclohexyl]-amino}-N-[2-(difluoromethyl)phenyl]thieno[2,3-b]pyrazine-7-carboxamide trifluoroacetate]",2580 nM
8,"N[C@@H]1[C@H](Nc2cnc3scc(C(=O)Nc4cscc4Cl)c3n2)CCCC1(F)F [Example 111, 2-{[(1R,2R)-2-amino-3,3-difluorocyclohexyl]-amino}-N-(4-chlorothiophen-3-yl)thieno[2,3-b]-pyrazine-7-carboxamide trifluoroacetate]",645 nM

# Stronger by IC50, values ahead:
row,IC50,SMILES
1,2 nM,"N[C@H]1CCCC[C@H]1Nc1cnc2scc(C(=O)Nc3ccccc3Br)c2n1 [Example 87, 2-{[(1R,2S)-2-aminocyclohexyl]-amino}-N-(2-bromophenyl)-thieno[2,3-b]-pyrazine-7-carboxamide trifluoroacetate]"
2,0.8 nM,"N[C@H]1CCCC[C@H]1Nc1cnc2scc(C(=O)Nc3ccccc3Cl)c2n1 [Example 92, 2-{(1R,2S)-2-aminocyclohexyl]-amino}-N-(2-chlorophenyl)-thieno[2,3-b]-pyrazine-7-carboxamide trifluoroacetate]"
3,0.5 nM,"N#Cc1ccccc1NC(=O)c1csc2ncc(N[C@@H]3CCCC[C@@H]3N)nc12 [Example 95, 2-{[(1R,2S)-2-aminocyclohexyl]-amino}-N-(2-cyanophenyl)-thieno[2,3-b]-pyrazine-7-carboxamide trifluoroacetate]"
4,25 nM,"N[C@H]1CCCC[C@H]1Nc1cnc2scc(C(=O)Nc3ccccc3C(F)F)c2n1 [Example 102, 2-{[(1R,2S)-2-aminocyclohexyl]-amino}-N-[2-(difluoromethyl)phenyl]thieno-[2,3-b]-pyrazine-7-carboxamide trifluoroacetate]"
5,146 nM,"N#Cc1ccccc1NC(=O)c1csc2ncc(N[C@@H]3CCCC(F)(F)[C@@H]3N)nc12 [Example 105, 2-{[(1R,2R)-2-amino-3,3-difluorocyclohexyl]-amino}-N-(2-cyanophenyl)-thieno[2,3-b]-pyrazine-7-carboxamide trifluoroacetate]"
6,151 nM,"O=C(Nc1cscc1Cl)c1csc2ncc(N3CCCNCC3)nc12 [Example 107, N-(4-chlorothiophen-3-yl)-2-(1,4-diazepan-1-yl)-thieno[2,3-b]-pyrazine-7-carboxamide trifluoroacetate]"
7,0.7 nM,"N[C@H]1CCCC[C@H]1Nc1cnc2scc(C(=O)Nc3cscc3Cl)c2n1 [Example 110, 2-{[(1R,2S)-2-aminocyclohexyl]-amino}-N-(4-chlorothiophen-3-yl)thieno[2,3-b]-pyrazine-7-carboxamide trifluoroacetate]"
